Results taken from patent US8435976B2, “4-substituted pyridin-3-yl-carboxamide compounds and methods of use” (F. Hoffmann-La Roche, priority 2009, dated 2013).
pEC50, pKi: −log10 of the molar value.

Experiments:
[1] = target: BaF3 PIM1 cells (Homo sapiens, UniProt P11309); test: BaF3 PIM1 cell proliferation (Cell Titer Glo); assay type: cell-based; settings: incubated overnight; read-out: Prolif BaF3_PIM1 (IC50)
Protocol: (§1) BaF3 parental line was obtained from the DSMZ repository. BaF3 lines transfected with PIM1 or PIM2 were generated. Mouse IL-3 was purchased from R&D Systems. G418 was purchased from Clontech. Media for BaF3 parental line contained RPMI, 10% FBS, 2 mM L-Glutamine, 2 ng/mL mIL-3. Media for BaF3 PIM1 & 2 lines contained RPMI, 10% FBS, 2 mM L-Glutamine, […]. Media for MM1.S line contained RPMI, 10% FBS, 2 mM L-Glutamine.
(§2) BaF3 parental cells, BaF3 PIM1 cells, BaF3 PIM2 cells, and MM1.S cells were seeded at 2 k/well, 5 k/well, 5 k/well, and 10 k/well respectively, in a 384-well plate, at 45 μL/well. Test compound was added at 5 μL/well. BaF3 cells (parental and transfected) were incubated overnight, while MM1.S cells were incubated for 72 hours at 37° C., 5% CO2. Cell Titer Glo Reagent (Promega) was added at 50 μL/well, the plates were incubated for 30 minutes, and their luminescence read on an HT Analyst. IC50/EC50 values for the test compound were calculated.

[2] = target: T1, PIM1 (Homo sapiens, UniProt P11309); test: Pim-1 kinase enzymatic assay (Caliper LC3000, FAM-Pimtide substrate); assay type: biochemical; settings: 20 pM PIM1, 10 μM ATP, 90 minutes; read-out: PIM1 LC3K (Ki)
T1 construct: made in house
T1 sequence (P11309 whole entry): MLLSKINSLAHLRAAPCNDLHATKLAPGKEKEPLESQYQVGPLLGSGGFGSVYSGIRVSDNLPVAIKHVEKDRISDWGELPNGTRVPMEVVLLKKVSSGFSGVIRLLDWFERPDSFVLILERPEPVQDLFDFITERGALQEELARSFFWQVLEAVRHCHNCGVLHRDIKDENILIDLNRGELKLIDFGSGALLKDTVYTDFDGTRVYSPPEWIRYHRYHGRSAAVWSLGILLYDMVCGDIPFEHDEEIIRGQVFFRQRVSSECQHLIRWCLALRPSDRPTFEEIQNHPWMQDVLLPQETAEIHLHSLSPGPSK
Protocol: (§3) Reaction Buffer contained 10 mM HEPES, pH 7.2, 10 mM MgCl2, 0.01% Tween 20, 2 mM DTT.
(§4) PIM reactions were carried out in a final volume of 10 μL per well in a 384-well plate. […] The separation of product and substrate was optimized by choosing voltages and pressure using Caliper's Optimizer software (Hopkinton, Mass.). The separation conditions used a downstream voltage of −500V, an upstream voltage of −2150V, and a screening pressure of −1.2 psi. […] Substrate conversion was calculated from the electrophoregram using HTS Well Analyzer software (Caliper Life Sciences, Hopkinton, Mass.). Ki values for the test compound were calculated.

[3] = target: BaF3 PIM2 cells (Homo sapiens, UniProt Q9P1W9); test: BaF3 PIM2 cell proliferation (Cell Titer Glo); assay type: cell-based; settings: incubated overnight; read-out: Prolif BaF3_PIM2 (IC50)
BaF3 PIM2 cells, sequence (Q9P1W9 whole entry, change not shown): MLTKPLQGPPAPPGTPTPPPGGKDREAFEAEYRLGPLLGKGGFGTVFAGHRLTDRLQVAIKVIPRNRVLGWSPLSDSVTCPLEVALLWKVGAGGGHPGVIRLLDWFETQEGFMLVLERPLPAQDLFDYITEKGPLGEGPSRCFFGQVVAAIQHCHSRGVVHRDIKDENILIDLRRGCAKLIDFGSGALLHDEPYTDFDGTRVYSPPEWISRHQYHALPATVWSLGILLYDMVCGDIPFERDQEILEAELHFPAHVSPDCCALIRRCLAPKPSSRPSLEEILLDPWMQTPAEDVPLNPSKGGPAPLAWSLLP
Protocol: as §1, §2

[4] = system: MM1.S cells; test: MM1.S cell proliferation, 72 hours (Cell Titer Glo); assay type: cell-based; settings: Homo sapiens, 72 hours, read-out: Prolif MM1S ATP (EC50)
Protocol: as §1, §2

[5] = target: T2, PIM3 (Homo sapiens, UniProt Q86V86); test: Pim-3 kinase enzymatic assay (Caliper LC3000, FAM-Pimtide substrate); assay type: biochemical; settings: 55 pM PIM3, 10 μM ATP, 90 minutes; read-out: PIM3 LC3K (Ki)
T2 construct: made in house
Protocol: as §3, §4

[6] = target: T3, PIM2 (Homo sapiens, UniProt Q9P1W9); test: Pim-2 kinase enzymatic assay (Caliper LC3000, FAM-Pimtide substrate); assay type: biochemical; settings: 50 pM PIM2, 10 μM ATP, 90 minutes; read-out: PIM2 LC3K (Ki)
T3 construct: made in house
T3 sequence (Q9P1W9 whole entry): as the sequence (Q9P1W9 whole entry, change not shown) above
Protocol: as §3, §4

BaF3 PIM1 cells, sequence (P11309 whole entry, change not shown): as the sequence (P11309 whole entry) above

Row | SMILES | GI50 [1] | pKi [2] | GI50 [3] | pEC50 [4] | pKi [5] | pKi [6]
1 | Nc1sc(-c2ccc(F)cc2F)nc1C(=O)Nc1cnccc1N1CCC[C@H](N)C1 [Example 42, (S)-5-amino-N-(4-(3-aminopiperidin-1-yl)pyridin-3-yl)-2-(2,4-difluorophenyl)thiazole-4-carboxamide] | 30.4 nM | 10.44 | 2100 nM | 6.92 | 10.66 | 10.03
2 | Nc1sc(-c2cccc(F)c2F)nc1C(=O)Nc1cnccc1N1CCC[C@H](N)C1 [Example 43, (S)-5-amino-N-(4-(3-aminopiperidin-1-yl)pyridin-3-yl)-2-(2,3-difluorophenyl)thiazole-4-carboxamide] | 45.5 nM | 10.21 | 3900 nM | 6.63 | 10.66 | 10.73
3 | Nc1sc(-c2ccc3cccnc3c2)nc1C(=O)Nc1cnccc1N1CCC[C@H](N)C1 [Example 44, (S)-5-amino-N-(4-(3-aminopiperidin-1-yl)pyridin-3-yl)-2-(quinolin-7-yl)thiazole-4-carboxamide] | 38.1 nM | 10.49 | 1900 nM | 6.72 | 9.95 | 9.29
4 | N[C@H]1CCCN(c2ccncc2NC(=O)c2csc(-c3ccccc3F)n2)C1 [Example 45, (S)-N-(4-(3-aminopiperidin-1-yl)pyridin-3-yl)-2-(2-fluorophenyl)thiazole-4-carboxamide] | 613 nM | 9.25 | 12500 nM | 5.26 | 9.47 | 8.56
5 | CN(C)C(=O)c1ccc(F)c(-c2nc(C(=O)Nc3cnccc3N3CCC[C@H](N)C3)cs2)c1 [Example 47, (S)-N-(4-(3-aminopiperidin-1-yl)pyridin-3-yl)-2-(5-(dimethylcarbamoyl)-2-fluorophenyl)thiazole-4-carboxamide] | 3900 nM | 8.40 | > 20000 nM | < 4.70 | 8.68 | 7.22
6 | Nc1sc(-c2c(F)cccc2F)nc1C(=O)Nc1cnccc1N1CCNCC1 [Example 50, 5-amino-2-(2,6-difluorophenyl)-N-(4-(piperazin-1-yl)pyridin-3-yl)thiazole-4-carboxamide] | 614 nM | 9.30 | 1400 nM | 6.13 | 9.48 | 8.16
7 | Nc1sc(-c2cc[nH]n2)nc1C(=O)Nc1cnccc1N1CCC[C@H](N)C1 [Example 51, (S)-5-amino-N-(4-(3-aminopiperidin-1-yl)pyridin-3-yl)-2-(1H-pyrazol-3-yl)thiazole-4-carboxamide] | 197 nM | 10.09 | > 20000 nM | 6.81 | 10.39 | 9.58
8 | Nc1sc(-c2c(F)cccc2F)nc1C(=O)Nc1cnccc1N1CCC[C@H](O)C1 [Example 52, (S)-5-amino-2-(2,6-difluorophenyl)-N-(4-(3-hydroxypiperidin-1-yl)pyridin-3-yl)thiazole-4-carboxamide] | 2200 nM | 10.57 | > 20000 nM | 5.89 | 10.21 | 9.31
9 | CC(C)NC(=O)c1ccc(F)c(-c2nc(C(=O)Nc3cnccc3N3CCC[C@@H](N)C3)c(N)s2)c1 [Example 53, (R)-5-amino-N-(4-(3-aminopiperidin-1-yl)pyridin-3-yl)-2-(2-fluoro-5-(isopropylcarbamoyl)phenyl)thiazole-4-carboxamide] | 273 nM | 9.68 | 7600 nM | 6.18 | 9.84 | 9.08
10 | Cc1cccc(C)c1-c1nc(C(=O)Nc2cnccc2N2CCC[C@H](N)C2)c(N)s1 [Example 54, (S)-5-amino-N-(4-(3-aminopiperidin-1-yl)pyridin-3-yl)-2-(2,6-dimethylphenyl)thiazole-4-carboxamide] | 7800 nM | 7.57 | > 20000 nM | 4.80 | 7.64 | 7.14
